Earlier results in patent US12594236B2, “Method of treating acute exacerbation of schizophrenia with long-acting injectable depot composition” (LABORATORIOS FARMACEUTICOS ROVI, S.A., priority 2021, dated 2026).
Where two headings read alike, the source gives them in different places.

Tested on: acute schizophrenia

Q: Which “placebo-adjusted reduction of the PANSS total score” value (“placebo-adjusted reduction” below) (441 mg, 12 weeks, oral aripiprazole 3 weeks after randomization) does the source give for `CCCCCCCCCCCC(=O)OCN1C(=O)CCc2ccc(OCCCCN3CCN(c4cccc(Cl)c4Cl)CC3)cc21` [Aripiprazole Lauroxil] here?
A: Its value is −10.9.

Q: What about the “placebo-adjusted reduction” value (882 mg, 12 weeks, oral aripiprazole 3 weeks after randomization) of the same compound?
A: The value was −11.9.

Q: For `CCCCCCCCCCCCCCCC(=O)OC1CCCn2c1nc(C)c(CCN1CCC(c3noc4cc(F)ccc34)CC1)c2=O` (centres unmarked) [Paliperidone Palmitate], which “placebo-adjusted reduction” value (25 mg eq, 13 weeks) is on record?
A: Its value is −5.1.

Q: What about the “placebo-adjusted reduction” value (100 mg eq, 13 weeks) of the same compound?
A: The value was −8.7.

Q: What about the “placebo-adjusted reduction” value (150 mg eq, 13 weeks) of the same compound?
A: The value was −9.8.
